# Literature values in patent publication US20130108701A1, “Solid Dosage Forms of Antipsychotics” (priority 2010, published 2013).
# Structures can show the parent of a compound that is named as a salt.
# Legend:
# [1] = not given; remark: listed apart in the source
smiles,measurement,setting,value
"O=C1Cc2cc(CCN3CCN(c4nsc5ccccc45)CC3)c(Cl)cc2N1 [Ziprasidone hydrochloride, 5-[2-[4-(1,2-benzisothiazol-3-yl)-1-piperazinyl]ethyl]-6-chloro-1,3-dihydro-2H-indol-2-one]",permeability,,high
same,aqueous solubility,[1],relatively poor
